What all share (type): functional
What all share (conditions): time 16-20 hrs

In one test the test system is Escherichia coli. The test is described as follows: Antibacterial activity against Escherichia coli ATCC 25922 incubated for 16 to 20 hrs by broth microdilution method.
A further test has as its system Klebsiella pneumoniae. Put plainly: Antibacterial activity against Klebsiella pneumoniae ATCC 13883 incubated for 16 to 20 hrs by broth microdilution method.
A further test deals with Cronobacter sakazakii. Put plainly: Antibacterial activity against Cronobacter sakazakii ATCC 29544 incubated for 16 to 20 hrs by broth microdilution method.
For the next test, the system named is Staphylococcus aureus. Put plainly: Antibacterial activity against Staphylococcus aureus ATCC 25923 incubated for 16 to 20 hrs by broth microdilution method.

SMILES strings stand for the structures. ≈ marks a conversion by molar mass, not a printed value.

For `CC[C@H]1OC(=O)C[C@@H](O)[C@H](C)[C@@H](O[C@@H]2O[C@H](C)[C@@H](O)[C@H](N(C)C)[C@H]2O)[C@@H](CCN(Cc2ccc(C(F)(F)F)cc2)Cc2cn(-c3cnc4ccccc4c3)nn2)C[C@@H](C)C(=O)/C=C/C(C)=C/[C@@H]1CN1CC(C)CC(C)C1` (stereo partly drawn), the minimal inhibitory concentration (MIC) was 32 µg/mL (≈ 30.2 µM) against Escherichia coli, 16 µg/mL (≈ 15.1 µM) with Klebsiella pneumoniae, 16 µg/mL (≈ 15.1 µM) against Cronobacter sakazakii and 4 µg/mL (≈ 3.77 µM) against Staphylococcus aureus.
In the case of `CC[C@H]1OC(=O)C[C@@H](O)[C@H](C)[C@@H](O[C@@H]2O[C@H](C)[C@@H](O)[C@H](N(C)C)[C@H]2O)[C@@H](CCN(Cc2ccc(N(C)C)cc2)Cc2cn(-c3cnc4ccccc4c3)nn2)C[C@@H](C)C(=O)/C=C/C(C)=C/[C@@H]1CN1CCCCCCC1`, the MIC against Escherichia coli came out at 8 µg/mL (≈ 7.73 µM); against Klebsiella pneumoniae it was 16 µg/mL (≈ 15.5 µM); in the test on Cronobacter sakazakii, 32 µg/mL (≈ 30.9 µM); against Staphylococcus aureus it was 0.5 µg/mL (≈ 0.483 µM).
The corresponding values for `CC[C@H]1OC(=O)C[C@@H](O)[C@H](C)[C@@H](O[C@@H]2O[C@H](C)[C@@H](O)[C@H](N(C)C)[C@H]2O)[C@@H](CCN(Cc2cn(-c3cnc4ccccc4c3)nn2)Cc2ccco2)C[C@@H](C)C(=O)/C=C/C(C)=C/[C@@H]1CN1CCCCC1` are 8 µg/mL (≈ 8.38 µM), 32 µg/mL (≈ 33.5 µM), 32 µg/mL (≈ 33.5 µM) and 0.25 µg/mL (≈ 0.262 µM).
In the same order, the values of `CC[C@H]1OC(=O)C[C@@H](O)[C@H](C)[C@@H](O[C@@H]2O[C@H](C)[C@@H](O)[C@H](N(C)C)[C@H]2O)[C@@H](CCN(Cc2cn(-c3cnc4ccccc4c3)nn2)Cc2ccco2)C[C@@H](C)C(=O)/C=C/C(C)=C/[C@@H]1CN(C)C` are 4 µg/mL (≈ 4.38 µM), 8 µg/mL (≈ 8.75 µM), 16 µg/mL (≈ 17.5 µM) and 0.5 µg/mL (≈ 0.547 µM).
Take `CC[C@H]1OC(=O)C[C@@H](O)[C@H](C)[C@@H](O[C@@H]2O[C@H](C)[C@@H](O)[C@H](N(C)C)[C@H]2O)[C@@H](CCN(Cc2ccc(C(F)(F)F)cc2)Cc2cn(-c3cnc4ccccc4c3)nn2)C[C@@H](C)C(=O)/C=C/C(C)=C/[C@@H]1CN1CCC(O)CC1`: the MIC against Escherichia coli was 16 µg/mL (≈ 15.3 µM); against Klebsiella pneumoniae, 32 µg/mL (≈ 30.5 µM); against Cronobacter sakazakii it was 32 µg/mL (≈ 30.5 µM); in the test on Staphylococcus aureus, 2 µg/mL (≈ 1.91 µM).
In the case of `CC[C@H]1OC(=O)C[C@@H](O)[C@H](C)[C@@H](O[C@@H]2O[C@H](C)[C@@H](O)[C@H](N(C)C)[C@H]2O)[C@@H](CCN(Cc2ccc(OC)cc2)Cc2cn(-c3cnc4ccccc4c3)nn2)C[C@@H](C)C(=O)/C=C/C(C)=C/[C@@H]1CN1CCCCCC1`, the MIC with Escherichia coli came out at 8 µg/mL (≈ 7.93 µM); in the test with Klebsiella pneumoniae it was 4 µg/mL (≈ 3.97 µM); in the test with Cronobacter sakazakii it was 32 µg/mL (≈ 31.7 µM); against Staphylococcus aureus it was 0.5 µg/mL (≈ 0.496 µM).
The corresponding values for `CC[C@H]1OC(=O)C[C@@H](O)[C@H](C)[C@@H](O[C@@H]2O[C@H](C)[C@@H](O)[C@H](N(C)C)[C@H]2O)[C@@H](CCN(Cc2ccc(Br)cc2)Cc2cn(-c3cnc4ccccc4c3)nn2)C[C@@H](C)C(=O)/C=C/C(C)=C/[C@@H]1CI` are 32 µg/mL (≈ 29.5 µM), 32 µg/mL (≈ 29.5 µM), 16 µg/mL (≈ 14.7 µM) and 4 µg/mL (≈ 3.68 µM).
The corresponding values for `CC[C@H]1OC(=O)C[C@@H](O)[C@H](C)[C@@H](O[C@@H]2O[C@H](C)[C@@H](O)[C@H](N(C)C)[C@H]2O)[C@@H](CCN(Cc2ccc(NC(C)=O)cc2)Cc2cn(-c3cnc4ccccc4c3)nn2)C[C@@H](C)C(=O)/C=C/C(C)=C/[C@@H]1CO` are 32 µg/mL (≈ 33.5 µM), 32 µg/mL (≈ 33.5 µM), 32 µg/mL (≈ 33.5 µM) and 2 µg/mL (≈ 2.1 µM).
In the same order, the values of `CC[C@H]1OC(=O)C[C@@H](O)[C@H](C)[C@@H](O[C@@H]2O[C@H](C)[C@@H](O)[C@H](N(C)C)[C@H]2O)[C@@H](CCN(Cc2cn(-c3cnc4ccccc4c3)nn2)Cc2cncs2)C[C@@H](C)C(=O)/C=C/C(C)=C/[C@@H]1CO` are 32 µg/mL (≈ 35.4 µM), 32 µg/mL (≈ 35.4 µM), 32 µg/mL (≈ 35.4 µM) and 0.5 µg/mL (≈ 0.553 µM).
Take `CC[C@H]1OC(=O)C[C@@H](O)[C@H](C)[C@@H](O[C@@H]2O[C@H](C)[C@@H](O)[C@H](N(C)C)[C@H]2O)[C@@H](CCN(Cc2ccccc2)Cc2cn(-c3cnc4ccccc4c3)nn2)C[C@@H](C)C(=O)/C=C/C(C)=C/[C@@H]1CN1CCCCCCC1`: the MIC against Escherichia coli is 8 µg/mL (≈ 8.06 µM); with Klebsiella pneumoniae, 8 µg/mL (≈ 8.06 µM); with Cronobacter sakazakii, 16 µg/mL (≈ 16.1 µM); against Staphylococcus aureus it was 1 µg/mL (≈ 1.01 µM).
As to `CC[C@H]1OC(=O)C[C@@H](O)[C@H](C)[C@@H](O[C@@H]2O[C@H](C)[C@@H](O)[C@H](N(C)C)[C@H]2O)[C@@H](CCN(Cc2cn(-c3cnc4ccccc4c3)nn2)Cc2ccc(CO)o2)C[C@@H](C)C(=O)/C=C/C(C)=C/[C@@H]1CO`, the minimum inhibitory concentration (MIC) with Escherichia coli was 32 µg/mL (≈ 34.9 µM); against Klebsiella pneumoniae, 32 µg/mL (≈ 34.9 µM); in the test with Cronobacter sakazakii, 32 µg/mL (≈ 34.9 µM); in the test on Staphylococcus aureus, 0.5 µg/mL (≈ 0.545 µM).
Turning to `CC[C@H]1OC(=O)C[C@@H](O)[C@H](C)[C@@H](O[C@@H]2O[C@H](C)[C@@H](O)[C@H](N(C)C)[C@H]2O)[C@@H](CCN(Cc2ccc(N(C)C)cc2)Cc2cn(-c3cnc4ccccc4c3)nn2)C[C@@H](C)C(=O)/C=C/C(C)=C/[C@@H]1CN1CCC(O)CC1`, the MIC in the test with Escherichia coli stood at 16 µg/mL (≈ 15.6 µM); in the test with Klebsiella pneumoniae it was 16 µg/mL (≈ 15.6 µM); in the test on Cronobacter sakazakii it was 32 µg/mL (≈ 31.3 µM); against Staphylococcus aureus it was 2 µg/mL (≈ 1.95 µM).

Values taken from ChEMBL document CHEMBL5126592, “Design, synthesis and activity against drug-resistant bacteria evaluation of C-20, C-23 modified 5-O-mycaminosyltylonolide derivatives” (Eur J Med Chem, 2022).
